Consider eleven compounds from patent publication EP4813463A2, “TYK2 INHIBITORS AND COMPOSITIONS AND METHODS THEREOF” (Lynk Pharmaceuticals Co. Ltd., priority 2023, dated 2024).

By Papp A→B is commonly meant the apparent permeability from the apical to the basolateral side of a cell layer. High values mean fast passage, low ones slow passage. In general, Papp B→A refers to the apparent permeability from the basolateral to the apical side of a cell layer. Usually IC50 stands for the concentration that inhibits the measured activity by half.

A short description of one series: Caco-2 cell permeability. It counts as in vitro ADME. Particulars: human, Caco-2, 10.0 µM, no p-gp inhibitor. As for the experimental part: Compounds permeability was evaluated using Caco-2 cell lines. HBSS buffer was used as transfer buffer. Appropriate dosing and receiver solutions were applied to the donor and receiver chambers to initiate the transport assay in apical to basolateral (A to B) or basolateral to apical (B to A) directions. Compounds were tested at 10.0 µM in the absence of p-gp inhibitor bidirectionally in duplicates. After incubation at 37°C for 90 mins, donor and receiver samples were analyzed by LC-MS/MS. The intestinal absorption potential was assessed using Papp value and efflux ratio.
A general note: Caco-2 cells form a polarised layer with tight junctions and transporters.

Series [1] relates to IFNa pSTAT1. Briefly: Phosphorylation of STAT1 inhibition in HMC3 cells by Jess. The class given is cell-based. Conditions: Homo sapiens; HMC3 microglia cells, 50ng/mL hINFα 1 hour, Jess western; read-out: Jess_HMC3 IC50 (IFNa pSTAT1). The procedure:
(§1) Seeding HMC3 cells into 12-well plate and incubate overnight. Pre-stimulation with recombinant human IFNα (Sino biological, H08Y), treat cells with compound with different concentration for 1hr. After compound treatment, stimulate HMC3 cells with 50ng/mL hINFα for another 1 hour (for CCF-STTG1 cells IFNα induction time is 30 mins). And then wash cells with DPBS once gently and lyse cells with pre-cooled RIPA buffer (Sigma, R0278-500ML) for 30min on ice to harvest cells. Centrifuge cell lysate for 20 mins at 12000rpm with freezer centrifuge (Thermo Scientific, Heraeus Fresco 21) to extract protein. Prepare samples with Jess Simple Wes kit (SM-WO04) and then run western blot on Jess simple western system (Protein simple, JS-4631). Collect data and analyzed with GraphPad Prism.

The subject of the next series is pSTAT1. Briefly: Phosphorylation inhibition of STAT in human whole blood (IFN-alpha stimulated, flow cytometry). The class given is cell-based. Particulars: T-cell, 20 min, IFN-alpha stimulation 20 mins, CD3 T cells, read-out: pSTAT1 inhibition in hWB (IC50). A digest of the protocol: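 Fresh human whole blood stimulated 20 min with human universal type I IFN-alpha, then fixed, permeabilised and stained for CD3 and pSTAT1 (Y701). pSTAT1 in T cells read by flow cytometry; IC50 from 4-parameter logistic fit.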
Background: A flow cytometer gives signals particle by particle.

The target of another series is T1, JAK2 (Homo sapiens, UniProt O60674).
T1 construct: purchased Carna Biosciences
T1 sequence (O60674 849-1124 limits assumed): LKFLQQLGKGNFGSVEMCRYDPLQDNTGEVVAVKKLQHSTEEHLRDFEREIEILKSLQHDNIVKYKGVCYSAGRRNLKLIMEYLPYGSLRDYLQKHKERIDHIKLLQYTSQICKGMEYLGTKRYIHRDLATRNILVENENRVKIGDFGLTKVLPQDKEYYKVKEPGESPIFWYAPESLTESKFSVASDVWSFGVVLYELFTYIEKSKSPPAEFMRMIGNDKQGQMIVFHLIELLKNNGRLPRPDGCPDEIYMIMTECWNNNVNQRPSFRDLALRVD
Briefly: JAK2 kinase activity, microfluidic assay (Caliper EZ Reader II, FAM labeled peptide substrate). The class given is biochemical. Particulars: JAK2 1.5 nM, 1 mM ATP. The procedure: (§2) Testing for JAK1, JAK2 and TYK2 Kinase Activities
(§3) JAK activity was determined in the reaction buffer 50 mM HEPES, 0.01% Brij35, 10 mM MgCl2, 2 mM DTT by a microfluidic assay. The phosphorylation of a FAM labeled peptide substrate was monitored in the Caliper EZ Reader II (Perkin Elmer). The assay condition for each batch of enzyme (Carna Biosciences) was optimized to obtain 10% conversion rate of peptide substrate.
(§4) The test compounds were dissolved in DMSO to a stock concentration of 10 mM. Three-fold serially diluted compounds with top concentration of 5 µM were pre-incubated with JAK1, JAK2 or TYK2 for 10 min at ambient temperature. The final DMSO concentration of assay mixture was 1%. […] The reaction was stopped by adding 50 mM EDTA.
(§5) And the well without compound but with equivalent DMSO was defined as no inhibition. The percent inhibition was calculated by the following formula: % Inhibition = (Conversion%_max−Conversion%_sample)/(Conversion%_max−Conversion%_min) × 100 [formula] wherein • Conversion%_ max = the conversion rate in the positive well without addition of compound • Conversion%_ sample = the conversion rate of test compounds • Conversion%_ min = the conversion rate in the well without addition of enzyme
(§6) The dose-response (percent inhibition) curve was plotted and IC50 values were determined by GraphPad software. The IC50 values of tested compounds were list in Table 3. Table 3. JAK1, JAK2 and TYK2 IC50 Values of Illustrative Compounds

Another series has as its target T2, TYK2 (Homo sapiens, UniProt P29597).
T2 construct: purchased Carna Biosciences
T2 sequence (P29597 897-1176 limits assumed): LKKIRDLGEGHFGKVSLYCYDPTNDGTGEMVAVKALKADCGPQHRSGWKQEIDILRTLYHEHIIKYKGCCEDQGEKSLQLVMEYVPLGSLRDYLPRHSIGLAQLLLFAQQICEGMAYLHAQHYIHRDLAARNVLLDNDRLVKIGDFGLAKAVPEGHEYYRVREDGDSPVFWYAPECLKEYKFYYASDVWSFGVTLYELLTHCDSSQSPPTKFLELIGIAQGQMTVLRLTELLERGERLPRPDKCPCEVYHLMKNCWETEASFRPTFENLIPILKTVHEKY
Briefly: TYK2 kinase activity, microfluidic assay (Caliper EZ Reader II, FAM labeled peptide substrate). Conditions: TYK2 20 nM, 1 mM ATP. It counts as biochemical. The procedure: as §2, §3, §4, §5, §6

The target in the next series is T3, JAK1 (Homo sapiens, UniProt P23458).
T3 construct: purchased Carna Biosciences
T3 sequence (P23458 875-1153 limits assumed): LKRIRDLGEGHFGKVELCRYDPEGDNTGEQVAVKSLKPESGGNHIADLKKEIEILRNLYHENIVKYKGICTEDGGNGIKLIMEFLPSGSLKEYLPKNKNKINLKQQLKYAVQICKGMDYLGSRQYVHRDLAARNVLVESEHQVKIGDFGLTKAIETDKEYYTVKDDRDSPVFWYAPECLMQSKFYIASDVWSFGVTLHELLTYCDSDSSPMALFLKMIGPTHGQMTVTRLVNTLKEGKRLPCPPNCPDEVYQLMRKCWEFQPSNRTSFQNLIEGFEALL
Briefly: JAK1 kinase activity, microfluidic assay (Caliper EZ Reader II, FAM labeled peptide substrate). It counts as biochemical. Conditions: JAK1 10 nM, 1 mM ATP. The procedure:
as §2, §3, §4, §5, §6

The subject of series [2] is IFNa pSTAT1. Briefly: Phosphorylation of STAT1 inhibition in CCF-STTG1 cells by Jess. The class given is cell-based. Particulars: Homo sapiens, 0.5 h; CCF-STTG1 astrocyte cells, IFNα induction 30 mins, Jess western; read-out: Jess_CCF-STTG1 IC50 (IFNa pSTAT1). As for the experimental part:
as §1

Setting [3] is: read-out: Efflux Ratio: Papp(B-A)/Papp(A-B).

The structures appear in SMILES notation.

Regarding `COC(=O)c1cnc(NC(=O)[C@@H]2C[C@@H]2F)cc1Nc1nn(C)c2ccc(C(O)C(F)(F)F)c(OC)c12` (single isomer, unassigned) [Example 122A, Methyl 6-((1S,2S)-2-fluorocyclopropane-1-carboxamido)-4-((4-methoxy-1-methyl-5-((S*)-2,2,2-trifluoro-1-hydroxyethyl)-1H-indazol-3-yl)amino) nicotinate], the Papp A→B at 1.5 h, 10 µM in “Caco-2 cell permeability” (90 mins, A to B) is 27.4 ×10⁻⁶ cm/s. For the same compound, in “Caco-2 cell permeability” (90 mins, B to A), the Papp B→A at 1.5 h, 10 µM came out at 45.3 ×10⁻⁶ cm/s. In the series “Caco-2 cell permeability” (setting [3]), the efflux ratio at 1.5 h, 10 µM amounted to 1.65. Moreover, the IC50 in the series on IFNa pSTAT1 [1] came to 0.239 nM.
Turning to `[2H]C([2H])([2H])NC(=O)c1cnc(NC(=O)C2CC2)cc1Nc1cnn2ccc([C@H](O)C(F)(F)F)c(OC)c12` [Example 7A, (S)-6-(cyclopropanecarboxamido)-4-((4-methoxy-5-(2,2,2-trifluoro-1-hydroxyethyl)pyrazolo[1,5-a]pyridin-3-yl)amino)-N-(methyl-d3)nicotinamide], the half-inhibitory concentration (IC50) in the series with pSTAT1 is 31.1 nM; on JAK2 it was more than 20000 nM; against TYK2 it was more than 20000 nM; in the series with IFNa pSTAT1 [1] it was 1.04 nM; at JAK1, more than 20000 nM; with IFNa pSTAT1 [2] it was 6.82 nM.
For the compound `[2H]C([2H])([2H])NC(=O)c1cnc(NC(=O)C2CC2)cc1Nc1cnn2ccc([C@@H](O)C(F)(F)F)c(OC)c12` [Example 7B, (R)-6-(cyclopropanecarboxamido)-4-((4-methoxy-5-(2,2,2-trifluoro-1-hydroxyethyl)pyrazolo[1,5-a]pyridin-3-yl)amino)-N-(methyl-d3)nicotinamide], the IC50 was 1000 nM in the series with pSTAT1, more than 20000 nM on JAK2, more than 20000 nM against TYK2 and more than 20000 nM at JAK1.
Take `[2H]C([2H])([2H])NC(=O)c1cnc(Nc2ccn(C)n2)cc1Nc1cnn2ccc([C@H](O)C(F)(F)F)c(OC)c12` [Example 21, (S)-4-((4-methoxy-5-(2,2,2-trifluoro-1-hydroxyethyl)pyrazolo[1,5-a]pyridin-3-yl)amino)-N-(methyl-d3)-6-((1-methyl-1H-pyrazol-3-yl)amino)nicotinamide]: the IC50 was 22.7 nM in the series on pSTAT1, more than 20000 nM on JAK2, more than 20000 nM at TYK2 and more than 20000 nM on JAK1. Moreover, in “Caco-2 cell permeability” (90 mins, A to B), the Papp A→B at 90 min, 10 µM was 0.71 ×10⁻⁶ cm/s. Moreover, the basolateral-to-apical permeability (Papp B→A) at 90 min, 10 µM in the series “Caco-2 cell permeability” (90 mins, B to A) stood at 47.4 ×10⁻⁶ cm/s. In “Caco-2 cell permeability” (setting [3]), the efflux ratio at 90 min, 10 µM turned out to be 67.
Turning to `[2H]C([2H])([2H])NC(=O)c1cnc(Nc2cc(C)nc(C)n2)cc1Nc1cnn2ccc([C@H](O)C(F)(F)F)c(OC)c12` [Example 25, (S)-6-((2,6-Dimethylpyrimidin-4-yl)amino)-4-((4-methoxy-5-(2,2,2-trifluoro-1-hydroxyethyl)pyrazolo[1,5-a]pyridin-3-yl)amino)-N-(methyl-d3)nicotinamide], the IC50 was 30.8 nM with pSTAT1, more than 20000 nM against JAK2, more than 20000 nM against TYK2 and more than 20000 nM against JAK1. This compound also came in with a Papp A→B at 90 min, 10 µM in the series “Caco-2 cell permeability” (90 mins, A to B) of 2.57 ×10⁻⁶ cm/s. In the series “Caco-2 cell permeability” (90 mins, B to A), this compound yielded a Papp B→A at 90 min, 10 µM of 62.3 ×10⁻⁶ cm/s. Also, in the series “Caco-2 cell permeability” (setting [3]), the efflux ratio at 90 min, 10 µM turned out to be 24.2.
In the case of `[2H]C([2H])([2H])NC(=O)c1cnc(NC(=O)C2CC2)cc1Nc1cnn2ccc([C@H](OC)C(F)(F)F)c(OC)c12` [Example 27, (S)-6-(cyclopropanecarboxamido)-4-((4-methoxy-5-(2,2,2-trifluoro-1-methoxyethyl)pyrazolo[1,5-a]pyridin-3-yl)amino)-N-(methyl-d3)nicotinamide], the IC50 with pSTAT1 was 51.2 nM; against JAK2, more than 20000 nM; against TYK2 it was more than 20000 nM; on JAK1, more than 20000 nM.
Take `[2H]C([2H])([2H])NC(=O)c1nnc(NC(=O)C2CC2)cc1Nc1cnn2ccc([C@H](O)C(F)(F)F)c(OC)c12` [Example 30, (S)-6-(cyclopropanecarboxamido)-4-((4-methoxy-5-(2,2,2-trifluoro-1-hydroxyethyl)pyrazolo[1,5-a]pyridin-3-yl)amino)-N-(methyl-d3)pyridazine-3-carboxamide]: the IC50 is 52.2 nM with pSTAT1, more than 20000 nM at JAK2, more than 20000 nM against TYK2 and more than 20000 nM against JAK1.
`COC(=O)c1cnc(NC(=O)C2CC2)cc1Nc1nn(C)c2ccc([C@H](OC)C(F)(F)F)c(OC)c12` [Example 45B, Methyl (S)-6-(cyclopropanecarboxamido)-4-((4-methoxy-1-methyl-5-(2,2,2-trifluoro-1-methoxyethyl)-1H-indazol-3-yl)amino)nicotinate] yielded a Papp A→B at 90 min, 10 µM in the series “Caco-2 cell permeability” (90 mins, A to B) of 7.27 ×10⁻⁶ cm/s. In “Caco-2 cell permeability” (90 mins, B to A), this compound displayed a Papp B→A at 90 min, 10 µM of 5.65 ×10⁻⁶ cm/s. Further, in “Caco-2 cell permeability” (setting [3]), the efflux ratio at 90 min, 10 µM came to 0.78. Besides, the half-inhibitory concentration (IC50) with IFNa pSTAT1 [1] worked out at 4.8 nM; in the series with IFNa pSTAT1 [2], 3.5 nM.
As to `[2H]C([2H])([2H])NC(=O)c1cnc(NC(=O)C2CC2)cc1Nc1nn(C)c2ccc([C@H](O)C(F)(F)F)c(OC)c12` [Example 49A, (S)-6-(cyclopropanecarboxamido)-4-((4-methoxy-1-methyl-5-(2,2,2-trifluoro-1-hydroxyethyl)-1H-indazol-3-yl)amino)-N-(methyl-d3)nicotinamide], the IC50 in the series with pSTAT1 is 10.5 nM; against JAK2, more than 10000 nM; on TYK2 it was more than 5000 nM; with IFNa pSTAT1 [1], 0.084 nM; on JAK1, more than 5000 nM. Also, the apical-to-basolateral permeability (Papp A→B) at 90 min, 10 µM in “Caco-2 cell permeability” (90 mins, A to B) is 1.32 ×10⁻⁶ cm/s. The compound also showed a Papp B→A at 90 min, 10 µM in the series “Caco-2 cell permeability” (90 mins, B to A) of 66.6 ×10⁻⁶ cm/s. The efflux ratio at 90 min, 10 µM in “Caco-2 cell permeability” (setting [3]) turned out to be 50.3.
In the case of `[2H]C([2H])([2H])O[C@@H](c1ccc2c(c(Nc3cc(NC(=O)C4CC4)ncc3C(=O)OC)nn2C)c1OC)C(F)(F)F` [Example 50B, Methyl (S)-6-(cyclopropanecarboxamido)-4-((4-methoxy-1-methyl-5-(2,2,2-trifluoro-1-(methoxy-d3)ethyl)-1H-indazol-3-yl)amino)nicotinate], the IC50 with pSTAT1 is 56.5 nM; against JAK2, more than 5000 nM; against TYK2 it was more than 5000 nM; with IFNa pSTAT1 [1], 9.3 nM; on JAK1, more than 5000 nM; with IFNa pSTAT1 [2], 3.73 nM.
As for `[2H]C([2H])([2H])NC(=O)c1cnc(NC(=O)C2CC2)cc1Nc1nn(C)c2ccc([C@H](OC([2H])([2H])[2H])C(F)(F)F)c(OC)c12` [Example 55A, (S)-6-(cyclopropanecarboxamido)-4-((4-methoxy-1-methyl-5-(2,2,2-trifluoro-1-(methoxy-d3)ethyl)-1H-indazol-3-yl)amino)-N-(methyl-d3)nicotinamide], the IC50 was 24.8 nM in the series on pSTAT1, more than 10000 nM at JAK2, more than 5000 nM against TYK2 and more than 5000 nM against JAK1.
